Assay results reported in US4139632A, “Psychotropic 2-trifluoromethyl-10-[3-(3-hydroxy-pyrrolidino)-propyl]-phenothiazine compounds” (Eisai Co., Ltd., priority 1975, dated 1979).

Tests used:
Format in all cases: in vivo
Mouse [1] = assay: Anti-tremorine activity (anti-Parkinson activity); conditions: for ED50: read-out: Anti-tremorine activity, 50% effective amount (ED50)
Method: (§1) Measurement of pharmacological activities are conducted in accordance with the procedures described in the following literatures: […]

Mouse [2] = assay: Inhibitory effect of spontaneous motor activity; conditions: read-out: Inhibitory effect of spontaneous motor activity, 50% effective amount (ED50)
Method: (§2) Measurement of pharmacological activities are conducted in accordance with the procedures described in the following literatures:
1) Svensson, T. H. et al

Mouse [3] = assay: Acute toxicity LD50, oral administration; conditions: compared with chlorpromazine and fluphenazine
Mouse [4] = assay: Anti-writhing effect (analgetic activity); conditions: read-out: Anti-writhing effect, 50% effective amount (ED50)
Method: as §2
Proc. Soc. […] Biol, & Med.,

Mouse [5] = assay: Anti-methanphethamine activity (neuroleptic activity); conditions: read-out: Anti-methanphethamine, 50% effective amount (ED50)
Method: as §1

Compound | central anticholinergic activity (Mouse [1]; concluded from table comparison) | ED50 (Mouse [1]; mouse, oral administration) | ED50 (Mouse [2]; mouse, oral administration) | acute toxicity (LD50) relative to chlorpromazine and fluphenazine (Mouse [3]) | ED50 (Mouse [4]; mouse, oral administration) | ED50 (Mouse [5]; mouse, oral administration) | ED50 (Mouse [1]; Mus musculus, po) | ED50 (Mouse [2]; Mus musculus, po) | ED50 (Mouse [4]; Mus musculus, po) | ED50 (Mouse [5]; Mus musculus, po)
Cl.OC1CCN(CCCN2c3ccccc3Sc3ccc(C(F)(F)F)cc32)C1 (stereo not drawn) [Compound A, 2-trifluoromethyl-10-[3-(3-hydroxy-pyrrolidino)-propyl]-phenothiazine hydrochloride] | has central anticholinergic activity | 3.6 mg/kg | 3.3 mg/kg | far less than that of chlorpromazine and fluphenazine | 1 mg/kg | 0.9 mg/kg | – | – | – | –
Cl.FC(F)(F)c1ccc2c(c1)N(CCCN1CCCC1)c1ccccc1S2 [Known Compound a, 2-trifluoromethyl-10-(3-pyrrolidino-propyl)-phenothiazine hydrochloride] | – | 4.3 mg/kg | 3.8 mg/kg | – | 4.1 mg/kg | 1.9 mg/kg | – | – | – | –
CN(C)CCCN1c2ccccc2Sc2ccc(Cl)cc21 [Chlorpromazine] | – | – | – | – | – | – | 2.3 mg/kg | 13 mg/kg | 9.4 mg/kg | 5.6 mg/kg
OCCN1CCN(CCCN2c3ccccc3Sc3ccc(C(F)(F)F)cc32)CC1 [Fluphenazine] | – | 12 mg/kg | 2.1 mg/kg | – | 2.5 to 10 mg/kg | 0.5 mg/kg | – | – | – | –
